# Laboratory results from patent publication US20180098997A1, “PHARMACEUTICAL DOSES FOR A BROMODOMAIN AND EXTRATERMINAL PROTEIN (BET) INHIBITOR” (Oncoethix GmbH, priority 2015, published 2018).
# Where two headings read alike, the source gives them in different places.
# Assays:
# [1] = test system: BET (bromodomains and extraterminal) proteins, which include BRD2, BRD3, and BRD4; details: U.S. 2010/0286127 A1; cited from earlier work
# [2] = test system: leukemia, diffuse large B-cell lymphoma, other lymphomas or multiple myeloma; assay: Objective responses in patients; format: in vivo, human; details: patients receiving 10 or 20 mg per day
# Source text: With regard to the compound of Formula (1), an effective dose is a dose that inhibits a protein in the bromodomain and extraterminal protein family to a sufficient degree that a desired objective response is observed. An objective response may be a complete response (all detectable tumor or blast cell has disappeared), a partial response (roughly corresponds to at least a 50% decrease in the total tumor volume or blast cell amount but with evidence of some residual disease still remaining), or a minor response (roughly means a small amount of tumor shrinkage or blast cell reduction). Thus, an objective response can include a response where blast cell amount reduction is observed, or where tumor shrinkage is observed in the patient.
# (§1) Doses of the compound of Formula (1) were administered to patients having leukemia, hematologic malignancies, diffuse large B-cell lymphoma, other lymphomas or multiple myeloma, and dose limiting toxicity and objective responses were observed.
# Compound of Formula (1) once-a-day doses of 10, 20, 40, 80, 120 and 160 mg and twice-a-day doses of 40 mg were administered to patients with leukemia, diffuse large B-cell lymphoma, other lymphomas or multiple myeloma. In this study, objective responses were not observed in patients receiving 10 or 20 mg per day.
# [3] = Phase I dose escalation population pharmacokinetics in patients with hematologic malignancies (plasma UPLC-MS/MS, Monolix PPK model); format: in vivo, human; details: for CL [mean +/- SD] / V [mean +/- SD]: apparent (F set to 1); for Cmin [mean +/- SD]: predose at Day 8; for AUC(0-t): read-out: AUC0-24 hr [mean +/- SD]; for Cmax: read-out: Cmax [mean +/- SD]
# Method: Solid dispersions were prepared using the compound of Formula (1) and hydroxylpropylmethylcellulose acetate succinate (HPMCAS) at both 25% and 50% of compound loading. Solid dispersions were prepared by a solvent evaporation method, using spray-drying followed by secondary drying in a low-temperature convection oven. Dispersions containing 10 mg, 20 mg, 40 mg, 80 mg, 120 mg and 160 mg, of the compound, were prepared into capsules and administered to patients Pharmacokinetics (PK) of the compound of Formula (1) as single agent were characterized in patients with hematologic malignancies, including a population pharmacokinetic modeling. A multicenter, dose escalation study in cohorts of 3 to 6 patients with acute leukemia or other hematologic malignancies was performed with a dose escalation step followed by expansion cohorts at the recommended dose. Patients received oral compound of Formula (1) from 10 to 160 mg according to different schedules. Schedules included once a day dosing with 21-day cycles, acute leukemia (AL); 14 days on/7 days off, hematologic malignancies (OHM). Continuous PK blood samples from 7 time points over 24 hours post-administration were collected on day 1 of cycle 1 for the first 3 patients per DL, and 5 time points over 8 hours post-administration for other patients at this DL. Residual sampling before administration on days 8, 15 and 22 was performed in all patients. Compound plasma concentrations were measured using validated ultra-performance liquid chromatography with tandem mass spectrometry detection with a concentration range 1-250 ng/mL, with a small plasma volume for analysis (50 μL). Analyses and population PK (PPK) modeling were performed with the nonlinear mixed effect modeling software program Monolix version 4.3. The following parameters were calculated: absorption constant (Ka); apparent distribution volume (V/F); apparent clearance (CL/F) and lean body mass (LBM; calculated considering patient sex, weight and height). Parameters were estimated by computing the maximum likelihood estimator without linearization using the stochastic approximation expectation maximization (SAEM) algorithm combined with a Markov Chain Monte Carlo (MCMC) procedure. The number of MCMC chains was fixed at 10 for all estimations. A constant error model was used to describe residual and Between-Subject Variability (BSV, η) were ascribed to an exponential model. In the absence of intravenous data, the initial bioavailability (F) was set to 1, meaning that clearance (CL) and volume of distribution (V) should be interpreted as the apparent clearance (CL/F) and apparent volume of distribution (V/F), respectively. Eighty-five patients enrolled and treated and randomized to six dose levels (10, 20, 40, 80, 120 and 160 mg) once-a-day and 40 mg twice-a-day. Among them, 81 patients with 630 plasma concentrations (607+23 BLQ) were evaluable for PK assessment. A 1-compartment open model adequately described the total compound concentration-time curve. […] The absorption phase was linear and Tmax was between 1 and 4 h. […] In the PPK study, the best descriptive model was obtained when LBM was considered in the analysis. A correlation between CL/F and V/F was also observed for compound. A total of 81 patients (52 male, 29 female) were evaluable for PK (40 AL patients, 41 OHM patients), with a total of […] available for analysis.
# [4] = Dose limiting toxicity in patients with acute leukemia or hematologic malignancies; format: in vivo, human
# Source text: Dose-limiting toxicity corresponds to side-effect toxicity such that the side-effects are severe enough to impose restrictions on, or to prevent administration of, the dose. Clinically significant toxicity includes but is not limited to intolerable levels in a patient of thrombocytopenia, neutropenia, fatigue, diarrhea, anemia, mucositis, and other side effects known to be associated with elevated levels of bromodomain and extraterminal protein inhibitors.
# as §1
# Compound of Formula (1) dose-limiting toxicity was evaluated in patients with acute leukemia and hematologic malignancies.
# [5] = 10 mg QD oral, n = 8, derived from EBE
# [6] = 20 mg QD oral, n = 6, derived from EBE
# [7] = 40 mg BID oral, n = 13, derived from EBE
# [8] = 40 mg QD oral, n = 8, derived from EBE
# [9] = 80 mg QD oral, n = 11, derived from EBE
# [10] = 120 mg QD oral, n = 30, derived from EBE
# [11] = 160 mg QD oral, n = 5, derived from EBE
# [12] = PPK structural model, 1-compartment open model, 81 patients, all dose levels
smiles,measurement,setting,value
"Cc1sc2c(c1C)C(c1ccc(Cl)cc1)=N[C@@H](CC(=O)Nc1ccc(O)cc1)c1nnc(C)n1-2 [Compound of Formula (1), (S)-2-(4-(4-chlorophenyl)-2,3,9-trimethyl-6H-thieno[3,2-f][1,2,4]triazolo[4,3-a][1,4]diazepin-6-yl)-N-(4-hydroxyphenyl)acetamide]",inhibition of binding of acetylated histone H4 to BET proteins,[1],inhibit the binding
same,objective responses,[2],not observed
same,CL [mean +/- SD],[3]; [5],8.53 L/h
same,V [mean +/- SD],[3]; [5],72.1 L
same,Cmin [mean +/- SD],"[3]; 10 mg QD oral, n = 8, observed values",22.5 ng/mL
same,CL [mean +/- SD],[3]; [6],7.06 L/h
same,V [mean +/- SD],[3]; [6],57.6 L
same,Cmin [mean +/- SD],"[3]; 20 mg QD oral, n = 6, observed values",50.5 ng/mL
same,CL [mean +/- SD],[3]; [7],6.57 L/h
same,V [mean +/- SD],[3]; [7],57.46 L
same,Cmin [mean +/- SD],"[3]; 40 mg BID oral, n = 13, observed values",351.16 ng/mL
same,CL [mean +/- SD],[3]; [8],7.66 L/h
same,V [mean +/- SD],[3]; [8],58.65 L
same,Cmin [mean +/- SD],"[3]; 40 mg QD oral, n = 8, observed values",47.7 ng/mL
same,CL [mean +/- SD],[3]; [9],7.83 L/h
same,V [mean +/- SD],[3]; [9],71.14 L
same,Cmin [mean +/- SD],"[3]; 80 mg QD oral, n = 11, observed values",113.7 ng/mL
same,CL [mean +/- SD],[3]; [10],7.81 L/h
same,V [mean +/- SD],[3]; [10],63.32 L
same,Cmin [mean +/- SD],"[3]; 120 mg QD oral, n = 30, observed values",325.4 ng/mL
same,CL [mean +/- SD],[3]; [11],12.10 L/h
same,V [mean +/- SD],[3]; [11],96.66 L
same,Cmin [mean +/- SD],"[3]; 160 mg QD oral, n = 5, observed values",215.0 ng/mL
same,absorption constant (Ka),[3]; [12],0.74 h⁻¹
same,apparent clearance (CL/F),[3]; [12],8.45 L/h
same,apparent distribution volume (V/F),[3]; [12],71.7 L
same,half-life,"[3]; both sexes, human, plasma, oral, all patients, read-out: Mean elimination half-life (converted)",5.8 h
same,AUC(0-t),"[3]; both sexes, human, plasma, po, 10 mg, 10 mg QD oral, n = 8, derived from EBE",1190 ng·h/mL
same,AUC(0-t),"[3]; both sexes, human, plasma, po, 20 mg, 20 mg QD oral, n = 6, derived from EBE",2930 ng·h/mL
same,AUC(0-t),"[3]; both sexes, human, plasma, po, 40 mg, 40 mg BID oral, n = 13, values doubled to mimic 80 mg (2 × 40 mg)",13100 ng·h/mL
same,AUC(0-t),"[3]; both sexes, human, plasma, po, 40 mg, 40 mg QD oral, n = 8, derived from EBE",5500 ng·h/mL
same,AUC(0-t),"[3]; both sexes, human, plasma, po, 80 mg, 80 mg QD oral, n = 11, derived from EBE",12500 ng·h/mL
same,AUC(0-t),"[3]; both sexes, human, plasma, po, 120 mg, 120 mg QD oral, n = 30, derived from EBE",17200 ng·h/mL
same,AUC(0-t),"[3]; both sexes, human, plasma, po, 160 mg, 160 mg QD oral, n = 5, derived from EBE",13900 ng·h/mL
same,Cmax,"[3]; both sexes, human, plasma, 40 mg BID oral, n = 13, derived from EBE",550 ng/mL
same,Cmax,"[3]; both sexes, human, plasma, 80 mg QD oral, n = 11, derived from EBE",1150 ng/mL
same,Cmax,"[3]; both sexes, human, plasma, 120 mg QD oral, n = 30, derived from EBE",1470 ng/mL
same,Cmax,"[3]; both sexes, human, plasma, 160 mg QD oral, n = 5, derived from EBE",1290 ng/mL
same,Tmax,"[3]; both sexes, human, plasma, oral, all dose levels",1 to 4 h
same,half-life,"[3]; human, plasma, po, 10 mg, 10 mg QD oral, n = 8, derived from EBE, read-out: T1/2 [mean +/- SD] (converted)",5.84 h
same,half-life,"[3]; human, plasma, po, 20 mg, 20 mg QD oral, n = 6, derived from EBE, read-out: T1/2 [mean +/- SD] (converted)",5.63 h
same,half-life,"[3]; human, plasma, po, 40 mg, 40 mg BID oral, n = 13, derived from EBE, read-out: T1/2 [mean +/- SD] (converted)",6.22 h
same,half-life,"[3]; human, plasma, po, 40 mg, 40 mg QD oral, n = 8, derived from EBE, read-out: T1/2 [mean +/- SD] (converted)",5.33 h
same,half-life,"[3]; human, plasma, po, 80 mg, 80 mg QD oral, n = 11, derived from EBE, read-out: T1/2 [mean +/- SD] (converted)",5.51 h
same,half-life,"[3]; human, plasma, po, 120 mg, 120 mg QD oral, n = 30, derived from EBE, read-out: T1/2 [mean +/- SD] (converted)",5.91 h
same,half-life,"[3]; human, plasma, po, 160 mg, 160 mg QD oral, n = 5, derived from EBE, read-out: T1/2 [mean +/- SD] (converted)",5.48 h
same,Cmax,"[3]; human, plasma, 10 mg QD oral, n = 8, derived from EBE",131 ng/mL
same,Cmax,"[3]; human, plasma, 20 mg QD oral, n = 6, derived from EBE",275 ng/mL
same,Cmax,"[3]; human, plasma, 40 mg QD oral, n = 8, derived from EBE",627 ng/mL
same,"Dose Limiting Toxicity, observed toxicity","[4]; Acute Leukemia, 20 mg QD, 6 patients",0 patients
same,"Dose Limiting Toxicity, observed toxicity","[4]; Acute Leukemia, 40 mg BID, 6 patients",0 patients
same,"Dose Limiting Toxicity, observed toxicity","[4]; Acute Leukemia, 40 mg QD, 4 patients",0 patients
same,"Dose Limiting Toxicity, observed toxicity","[4]; Acute Leukemia, 80 mg QD, 4 patients",0 patients
same,"Dose Limiting Toxicity, observed toxicity","[4]; Acute Leukemia, 120 mg QD, 11 patients",0 patients
same,"Dose Limiting Toxicity, observed toxicity","[4]; Acute Leukemia, 160 mg QD, 5 patients (diarrhea and fatigue/anorexia)",2 patients
same,"Dose Limiting Toxicity, observed toxicity","[4]; Older Adult Hematologic Malignancies, 20 mg QD, 6 patients",0 patients
same,"Dose Limiting Toxicity, observed toxicity","[4]; Older Adult Hematologic Malignancies, 40 mg BID, 6 patients (thrombocytopenia)",5 patients
same,"Dose Limiting Toxicity, observed toxicity","[4]; Older Adult Hematologic Malignancies, 40 mg QD, 3 patients",0 patients
same,"Dose Limiting Toxicity, observed toxicity","[4]; Older Adult Hematologic Malignancies, 80 mg QD, 7 patients (thrombocytopenia)",2 patients
same,"Dose Limiting Toxicity, observed toxicity","[4]; Older Adult Hematologic Malignancies, 120 mg QD, 18 patients (thrombocytopenia, hypo Na, neutropenia, fatigue, diarrhea, mucositis)",10 patients
